The compounds below were run on 3D7 P. falciparum strain (assay: P. falciparum 3D7 parasite proliferation assay (SYBR Green)). Conditions: Plasmodium falciparum, Erythrocyte; 3D7 P. falciparum infected human erythrocytes, 72 hours, SYBR Green fluorescence; read-out: Pf3D7 Activity.
Format: cell-based
Method: The following assay illustrates the invention without in any way limiting the scope of the invention. This parasite proliferation assay measures the increase in parasite DNA content using a DNA intercalating dye, SYBR Green®. 3D7 P. falciparum strain is grown in complete culturing media until parasitemia reaches 3% to 8% with O+ human erythrocytes. 20 μl of screening media is dispensed into 384 well assay plates. 50 nl of compounds of the invention (in DMSO), including antimalarial controls (mefloquine, pyrimethamine and artemisinin), are then transferred into the assay plates, as well as DMSO alone to serve as a negative control for inhibition. Then 30 μl of a suspension of a 3D7 P. falciparum infected erythrocytes in screening media is dispensed into the assay plates such that the final hematocrit is 2.5% with a final parasitemia of 0.3%. The plates are placed in a 37° C. incubator for 72 hours in a low oxygen environment containing 93% N2, 4% CO2, and 3% O2 gas mixture. 10 μl of lysis buffer (saponin, triton-X, EDTA) containing a 10× solution of SYBR Green […] in RPMI media is dispensed into the plates. The plates are lidded and kept at room temperature overnight for the lysis of the infected red blood cells. The fluorescence intensity is measured (excitation […], emission 530 nm) using the Envision™ system (Perkin Elmer). The percentage inhibition of 50%, EC50, is calculated for each compound.

SMILES | EC50
Cc1c(-c2cncc(C(=O)NCC(C)(C)N)n2)[nH]c2cc(OC(F)F)ccc12 [Example 69, N-(2-Amino-2-methylpropyl)-6-(6-(difluoromethoxy)-3-methyl-1H-indol-2-yl)pyrazine-2-carboxamide] | 10 to 100 nM
CCOC(=O)c1cc2[nH]c(-c3cncc(C(=O)NCC(C)(C)N)n3)cc2s1 [Example 53, Ethyl 5-(6-((2-amino-2-methylpropyl)carbamoyl)pyrazin-2-yl)-4H-thieno[3,2-b]pyrrole-2-carboxylate] | 10 to 100 nM
CC(C)(N)CNC(=O)c1cncc(-c2[nH]c3ccccc3c2Cl)n1 [Example 49, N-(2-amino-2-methylpropyl)-6-(3-chloro-1H-indol-2-yl)pyrazine-2-carboxamide] | 10 to 100 nM
Cc1c(-c2cncc(C(=O)NC3CNC3)n2)[nH]c2ccccc12 [Example 91, N-(azetidin-3-yl)-6-(3-methyl-1H-indol-2-yl)pyrazine-2-carboxamide] | > 100 nM
Cc1c(-c2cncc(C(=O)NCC(C)(C)N)n2)[nH]c2ccc(Br)cc12 [Example 74, N-(2-Amino-2-methylpropyl)-6-(5-bromo-3-methyl-1H-indol-2-yl)pyrazine-2-carboxamide] | < 10 nM
Cc1c(-c2cncc(C(=O)NCC3(N)CCOCC3)n2)[nH]c2ccccc12 [Example 89, N-((4-aminotetrahydro-2H-pyran-4-yl)methyl)-6-(3-methyl-1H-indol-2-yl)pyrazine-2-carboxamide] | 10 to 100 nM
Cc1c(-c2cncc(C(=O)NCC3(N)CCOCC3)n2)[nH]c2cc(Cl)c(F)cc12 [Example 80, N-((4-aminotetrahydro-2H-pyran-4-yl)methyl)-6-(6-chloro-5-fluoro-3-methyl-1H-indol-2-yl)pyrazine-2-carboxamide] | 10 to 100 nM
CC(C)(N)CNC(=O)c1cncc(-c2cc3cc(F)cc(F)c3[nH]2)n1 [Example 24, N-(2-amino-2-methylpropyl)-6-(5,7-difluoro-1H-indol-2-yl)pyrazine-2-carboxamide] | 10 to 100 nM
Cc1c(-c2cncc(C(=O)NC34CC(N)(C3)C4)n2)[nH]c2ccc(OC(F)(F)F)cc12 [Example 64, N-(3-aminobicyclo[1.1.1]pentan-1-yl)-6-(3-methyl-5-(trifluoromethoxy)-1H-indol-2-yl)pyrazine-2-carboxamide] | 10 to 100 nM
Cc1c(-c2cncc(C(=O)N[C@H]3CC[C@H](N)CC3)n2)[nH]c2ccccc12 [Example 97, N-((1r,4r)-4-aminocyclohexyl)-6-(3-methyl-1H-indol-2-yl)pyrazine-2-carboxamide] | > 100 nM
Cc1c(-c2cncc(C(=O)N(C)CC(C)(C)N)n2)[nH]c2ccccc12 [Example 66, N-(2-amino-2-methylpropyl)-N-methyl-6-(3-methyl-1H-indol-2-yl)pyrazine-2-carboxamide] | > 100 nM
COc1cc2[nH]c(-c3cncc(C(=O)NCC(C)(C)N)n3)cc2cc1F [Example 36, N-(2-amino-2-methylpropyl)-6-(5-fluoro-6-methoxy-1H-indol-2-yl)pyrazine-2-carboxamide] | > 100 nM
CC(C)(N)CNC(=O)c1cncc(-c2cc3cc(Cl)ncc3[nH]2)n1 [Example 39, N-(2-amino-2-methylpropyl)-6-(5-chloro-1H-pyrrolo[2,3-c]pyridin-2-yl)pyrazine-2-carboxamide] | > 100 nM
Cc1c(-c2cncc(C(=O)NCCN)n2)[nH]c2ccccc12 [Example 86, N-(2-aminoethyl)-6-(3-methyl-1H-indol-2-yl)pyrazine-2-carboxamide] | 10 to 100 nM
Cc1c(-c2cncc(C(=O)NCCCN)n2)[nH]c2ccc(OC(F)(F)F)cc12 [Example 63, N-(3-aminopropyl)-6-(3-methyl-5-(trifluoromethoxy)-1H-indol-2-yl)pyrazine-2-carboxamide] | 10 to 100 nM
Cc1c(-c2cncc(C(=O)N[C@H]3CC[C@H](N)CC3)n2)[nH]c2ccc(OC(F)(F)F)cc12 [Example 65, N-((1r,4r)-4-aminocyclohexyl)-6-(3-methyl-5-(trifluoromethoxy)-1H-indol-2-yl)pyrazine-2-carboxamide] | 10 to 100 nM
CC(C)(N)CNC(=O)c1cncc(-c2cc3cc(F)c(Cl)nc3[nH]2)n1 [Example 33, N-(2-amino-2-methylpropyl)-6-(6-chloro-5-fluoro-1H-pyrrolo[2,3-b]pyridin-2-yl)pyrazine-2-carboxamide] | > 100 nM
Cc1c(-c2cncc(C(=O)NCC(C)(C)N)n2)[nH]c2ccc(CN)cc12 [Example 71, N-(2-amino-2-methylpropyl)-6-(5-(aminomethyl)-3-methyl-1H-indol-2-yl)pyrazine-2-carboxamide] | > 100 nM

SMILES | EC50
Cc1c(-c2cncc(C(=O)NCC3(N)CCOCC3)n2)[nH]c2ccc(OC(F)(F)F)cc12 [Example 61, N-((4-aminotetrahydro-2H-pyran-4-yl)methyl)-6-(3-methyl-5-(trifluoromethoxy)-1H-indol-2-yl)pyrazine-2-carboxamide] | 10 to 100 nM
Cc1c(-c2cncc(C(=O)NCC(C)(C)N)n2)[nH]c2cc(Cl)c(F)cc12 [Example 1, N-(2-amino-2-methylpropyl)-6-(6-chloro-5-fluoro-3-methyl-1H-indol-2-yl)pyrazine-2-carboxamide] | < 10 nM
CC(C)(N)CNC(=O)c1cncc(-c2cc3ccnc(Cl)c3[nH]2)n1 [Example 42, N-(2-amino-2-methylpropyl)-6-(7-chloro-1H-pyrrolo[2,3-c]pyridin-2-yl)pyrazine-2-carboxamide] | > 100 nM
COc1ccc2[nH]c(-c3cncc(C(=O)NCC(C)(C)N)n3)cc2c1 [Example 32, N-(2-amino-2-methylpropyl)-6-(5-methoxy-1H-indol-2-yl)pyrazine-2-carboxamide] | > 100 nM
Cc1cc2[nH]c(-c3cncc(C(=O)NCC(C)(C)N)n3)c(C)c2s1 [Example 73, N-(2-amino-2-methylpropyl)-6-(2,6-dimethyl-4H-thieno[3,2-b]pyrrol-5-yl)pyrazine-2-carboxamide] | 10 to 100 nM
CC(C)(N)CNC(=O)c1cncc(-c2cc3cc(F)c(Cl)cc3[nH]2)n1 [Example 14, N-(2-amino-2-methylpropyl)-6-(6-chloro-5-fluoro-1H-indol-2-yl)pyrazine-2-carboxamide] | 10 to 100 nM
CC(C)(N)CNC(=O)c1cncc(-c2cc3ccc(Cl)c(F)c3[nH]2)n1 [Example 11, N-(2-amino-2-methylpropyl)-6-(6-chloro-7-fluoro-1H-indol-2-yl)pyrazine-2-carboxamide] | 10 to 100 nM
Cc1c(-c2cncc(C(=O)NCC(C)(C)N)n2)[nH]c2cc(F)c(Cl)cc12 [Example 10, N-(2-amino-2-methylpropyl)-6-(5-chloro-6-fluoro-3-methyl-1H-indol-2-yl)pyrazine-2-carboxamide] | < 10 nM
Cc1c(-c2cncc(C(=O)NCC(C)(C)O)n2)[nH]c2ccccc12 [Example 100, N-(2-hydroxy-2-methylpropyl)-6-(3-methyl-1H-indol-2-yl)pyrazine-2-carboxamide] | > 100 nM
Cc1c(-c2cncc(C(=O)NCC(C)(C)N)n2)[nH]c2ccc(OC(F)(F)F)cc12 [Example 5, N-(2-amino-2-methylpropyl)-6-(3-methyl-5-(trifluoromethoxy)-1H-indol-2-yl)pyrazine-2-carboxamide] | < 10 nM
CC(C)(N)CNC(=O)c1cncc(-c2cc3cc(Cl)ccc3[nH]2)n1 [Example 19, N-(2-amino-2-methylpropyl)-6-(5-chloro-1H-indol-2-yl)pyrazine-2-carboxamide] | 10 to 100 nM
Cc1c(-c2cncc(C(=O)NCC3(N)COC3)n2)[nH]c2ccccc12 [Example 95, N-((3-aminooxetan-3-yl)methyl)-6-(3-methyl-1H-indol-2-yl)pyrazine-2-carboxamide] | > 100 nM
Cc1c(-c2cncc(C(=O)NCCN)n2)[nH]c2ccc(OC(F)(F)F)cc12 [Example 60, N-(2-aminoethyl)-6-(3-methyl-5-(trifluoromethoxy)-1H-indol-2-yl)pyrazine-2-carboxamide] | 10 to 100 nM
Cc1ccc2[nH]c(-c3cncc(C(=O)NCC(C)(C)N)n3)cc2c1 [Example 26, N-(2-amino-2-methylpropyl)-6-(5-methyl-1H-indol-2-yl)pyrazine-2-carboxamide] | 10 to 100 nM
COC(=O)c1ccc2cc(-c3cncc(C(=O)NCC(C)(C)N)n3)[nH]c2c1 [Example 29, Methyl 2-(6-((2-amino-2-methylpropyl)carbamoyl)pyrazin-2-yl)-1H-indole-6-carboxylate] | 10 to 100 nM
Cc1c(-c2cncc(C(=O)NCC(C)(C)N)n2)[nH]c2ccc(S(F)(F)(F)(F)F)cc12 [Example 3, N-(2-amino-2-methylpropyl)-6-(3-methyl-5-(pentafluoro-λ^6-sulfaneyl)-1H-indol-2-yl)pyrazine-2-carboxamide] | < 10 nM
Cc1c(-c2cncc(C(=O)NC3CCNCC3)n2)[nH]c2ccccc12 [Example 93, 6-(3-methyl-1H-indol-2-yl)-N-(piperidin-4-yl)pyrazine-2-carboxamide] | > 100 nM
Cc1c(-c2cncc(C(=O)NCC(N)CO)n2)[nH]c2ccccc12 (stereo not drawn) [Example 94, N-(2-amino-3-hydroxypropyl)-6-(3-methyl-1H-indol-2-yl)pyrazine-2-carboxamide] | > 100 nM

— patent US20250197376A1, “PYRAZINE AMIDE DERIVATIVES” (Novartis AG, priority 2022, published 2025)
